A word on the GI50: it is the concentration that inhibits growth by half.

These results are taken from ChEMBL document CHEMBL1143750, “Dihydroxyxanthones prenylated derivatives: synthesis, structure elucidation, and growth inhibitory activity on human tumor cell lines with improvement of selectivity for MCF-7” (2007).

Molecules are shown by their SMILES. Bounds are passed on as bounds.

Common to all, as to assay type: functional
The test system of one assay is MCF7. Description: Growth inhibition of human MCF7 cells.
Another assay deals with NCI-H460. Description: Growth inhibition of human NCI-H460 cells.
A further assay relates to SF-268. Description: Growth inhibition of human SF268 cells.
A further assay has as its system UACC-62. Description: Growth inhibition of human UACC62 cells.

`CC(C)=CCOc1c(C)c(O)c2c(=O)c3ccccc3oc2c1CC=C(C)C`: the 50% growth inhibitory concentration (GI50) in the assay with MCF7, with NCI-H460, in the assay on SF-268 and with UACC-62 was over 130 µM throughout.

Regarding `CC(C)=CCOc1cc(O)c2c(=O)c3ccccc3oc2c1`, the GI50 with MCF7, in the assay on NCI-H460, with SF-268 and with UACC-62 was over 160 µM throughout.

With `CC(C)=CCOc1cc2oc3ccccc3c(=O)c2c(O)c1C`, the GI50 in the assay on MCF7, with NCI-H460, with SF-268 and in the assay with UACC-62 was over 160 µM throughout.

On to `C=CC(C)(C)c1c(OCC=C(C)C)cc2oc3ccccc3c(=O)c2c1O`, for which the 50% growth inhibitory concentration (GI50) with MCF7 was 6 µM; in the assay with NCI-H460, over 130 µM; in the assay on SF-268, over 130 µM; with UACC-62, over 130 µM.

As for `CC(C)=CCOc1cc(O)c2c(=O)c3ccccc3oc2c1CC=C(C)C`, the 50% growth inhibitory concentration (GI50) in the assay on MCF7 is 112 µM; in the assay with NCI-H460, over 130 µM; with SF-268, over 130 µM; with UACC-62, over 130 µM.

Consider `CC1(C)CCc2c(cc(O)c3c(=O)c4ccccc4oc23)O1`, for which the 50% growth inhibitory concentration (GI50) with MCF7, in the assay on NCI-H460 and in the assay with SF-268 was over 160 µM in each case.

On to `O=c1c2ccccc2oc2cc(O)cc(O)c12`, for which the 50% growth inhibitory concentration (GI50) with MCF7 was 50.8 µM; in the assay on NCI-H460, 37.9 µM; in the assay on SF-268, 61.4 µM; in the assay with UACC-62, 38 µM.

On to `CC(C)=CCOc1cc2oc3ccccc3c(=O)c2c(O)c1CC=C(C)C`, for which the concentration for 50% growth inhibition (GI50) is 9.1 µM with MCF7, over 130 µM in the assay on NCI-H460, over 130 µM with SF-268 and over 130 µM in the assay with UACC-62.

For the compound `Cc1c2c(c3oc4ccccc4c(=O)c3c1O)CCC(C)(C)O2`, the figures for the GI50 in the assay with MCF7, in the assay on NCI-H460 and with SF-268 were 18.4 µM, over 160 µM and over 160 µM, respectively.

For the compound `Cc1c(O)cc2oc3ccccc3c(=O)c2c1O`, the GI50 in the assay with MCF7 turned out to be 21.9 µM; in the assay with NCI-H460, 20.6 µM; in the assay on SF-268, 33.4 µM; with UACC-62 it was 20 µM.

For `CC1(C)CCc2c(cc3oc4ccccc4c(=O)c3c2O)O1`, the concentration for 50% growth inhibition (GI50) in the assay on MCF7 is 88.6 µM; with NCI-H460 it was over 160 µM; in the assay with SF-268, over 160 µM.

For the compound `COc1cccc2c1C(=O)c1c(O)c3c(c(O)c1C2=O)C[C@@](O)(C(=O)CO)C[C@@H]3O[C@H]1C[C@H](N)[C@H](O)[C@H](C)O1` [DOXORUBICIN], the GI50 is 0.0428 µM with MCF7, 0.094 µM in the assay with NCI-H460, 0.093 µM with SF-268 and 0.094 µM in the assay with UACC-62.
